Where no end group is shown, it is not given here.
Key:
Chk1 protein kinase [1] = molecular target: T1, Chk1 protein kinase (Homo sapiens, UniProt O14757); details: EDTA 1 mM, 5 mM or 20 mM added before 21 mU Chk1; FIG. 11
Chk1 protein kinase [2] = molecular target: T1, Chk1 protein kinase; details: EDTA 10 mM or 20 mM added prior to enzyme addition; FIG. 8
Src kinase = Src kinase (Homo sapiens, UniProt P12931); assay: FRET assay of Src phosphorylation of rhodamine labelled SHPS-1 peptide, read by binding to SHP2-GFP; assay type: biochemical; details: 10 μM staurosporine added before the Src enzyme; FIG. 19
Experimental: These FRET-based assays are performed to measure Src kinase activity as determined by the Src kinase dependent formation of a complex between the SH2 domain of SHP2 labelled with a fluorophore and an synthetic peptide based on SHPS-1, also labelled with a fluorophore.
Interaction between the tandem SH2 domain of SHP2 and a synthetic peptide based on SHPS-1 is mediated by the state of phosphorylation of the peptide. A FRET partnership can be established between phosphorylated peptide and the SH2 domain providing both moieties are labelled with suitable fluorophores which are brought into close proximity upon interaction of binding partners. […]
SHP2-GFP was diluted to 0.5 μM in assay buffer (50 mM Tris HCL pH 7.2, 10 mM β-mercaptoethanol, 0.5 mg/ml BSA, 0.015% Brij 35). […] Initial readings of the fluorescence of the SHP2-GFP construct were made using 485 nm excitation wavelength and 520 nm emission wavelength. Rhodamine labelled peptide (2 μl of the above phosphorylation reactions) was added to the SHP2-GFP solution and formation of FRET was monitored in real-time by measuring the decrease in fluorescence emission of SHP2-GFP at 520 nm as shown in FIG. 17. […]

[3] = molecular target: Yersinia protein tyrosine phosphatase (YOP) (Yersinia enterocolitica, UniProt P15273); assay type: biochemical; details: read-out: IC50 for inhibition of YOP
[4] = molecular target: T2, PKA Peptide 2, labelled with biotin and bound to streptavidin, non-phosphorylated (biotin label (bound to streptavidin in the assay)); assay: fluorescence polarisation of coumarin labelled peptide 1 with biotin labelled peptide 2 on streptavidin
T2 construct: Coiled-coil forming peptide with a PKA phosphorylation site
T2 peptide: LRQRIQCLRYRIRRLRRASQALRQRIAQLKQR

T1 sequence (O14757 whole entry): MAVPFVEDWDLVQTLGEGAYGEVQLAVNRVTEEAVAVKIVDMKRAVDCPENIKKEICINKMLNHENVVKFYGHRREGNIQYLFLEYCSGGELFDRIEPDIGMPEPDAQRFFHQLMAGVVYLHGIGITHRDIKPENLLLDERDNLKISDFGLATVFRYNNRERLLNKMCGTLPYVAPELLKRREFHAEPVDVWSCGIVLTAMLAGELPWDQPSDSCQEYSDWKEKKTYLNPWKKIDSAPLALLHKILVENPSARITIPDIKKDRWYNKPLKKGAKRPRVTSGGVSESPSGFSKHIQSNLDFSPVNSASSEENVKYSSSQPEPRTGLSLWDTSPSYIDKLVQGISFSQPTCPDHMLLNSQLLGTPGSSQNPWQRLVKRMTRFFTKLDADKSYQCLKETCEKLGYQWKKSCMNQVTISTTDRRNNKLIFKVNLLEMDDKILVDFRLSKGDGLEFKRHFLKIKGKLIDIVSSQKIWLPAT
Src kinase, sequence (P12931 whole entry, the tested form may be a part): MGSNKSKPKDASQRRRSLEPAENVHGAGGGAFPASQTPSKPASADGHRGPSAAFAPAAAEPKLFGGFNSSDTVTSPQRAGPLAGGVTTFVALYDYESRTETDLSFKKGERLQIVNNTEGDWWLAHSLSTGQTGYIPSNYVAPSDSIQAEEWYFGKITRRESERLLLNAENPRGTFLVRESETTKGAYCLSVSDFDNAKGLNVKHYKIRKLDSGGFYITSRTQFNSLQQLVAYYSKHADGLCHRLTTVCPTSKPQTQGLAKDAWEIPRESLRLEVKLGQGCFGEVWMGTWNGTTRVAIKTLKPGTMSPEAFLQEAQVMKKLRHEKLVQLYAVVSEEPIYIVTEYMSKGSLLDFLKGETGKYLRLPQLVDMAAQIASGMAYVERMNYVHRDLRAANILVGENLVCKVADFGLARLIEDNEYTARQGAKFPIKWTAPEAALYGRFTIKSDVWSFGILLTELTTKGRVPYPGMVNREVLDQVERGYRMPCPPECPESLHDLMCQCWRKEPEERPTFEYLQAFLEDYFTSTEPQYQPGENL
Yersinia protein tyrosine phosphatase (YOP), sequence (P15273 whole entry): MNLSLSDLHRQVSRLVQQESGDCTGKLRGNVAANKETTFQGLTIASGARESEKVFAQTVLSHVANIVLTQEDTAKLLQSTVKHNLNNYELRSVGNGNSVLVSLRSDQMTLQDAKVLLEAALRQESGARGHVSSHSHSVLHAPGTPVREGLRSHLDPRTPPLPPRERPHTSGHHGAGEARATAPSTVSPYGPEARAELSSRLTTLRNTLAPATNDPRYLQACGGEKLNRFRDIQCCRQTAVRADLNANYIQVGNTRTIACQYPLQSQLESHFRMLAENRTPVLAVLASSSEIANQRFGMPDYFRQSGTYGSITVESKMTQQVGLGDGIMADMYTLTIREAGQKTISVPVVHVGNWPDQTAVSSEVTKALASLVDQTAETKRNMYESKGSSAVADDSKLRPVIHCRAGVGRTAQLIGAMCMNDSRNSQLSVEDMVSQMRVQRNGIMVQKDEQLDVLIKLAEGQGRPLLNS

O=C(O)CN(CCN(CC(=O)O)CC(=O)O)CC(=O)O [EDTA]
Inhibition of Chk1 phosphorylation of fluorescein labelled Chktide (real time) (Chk1 protein kinase [1]): inhibition
Inhibition of Chk1 phosphorylation of Chktide peptide (end point) (Chk1 protein kinase [2]): inhibition

CN[C@@H]1C[C@H]2O[C@@](C)([C@@H]1OC)n1c3ccccc3c3c4c(c5c6ccccc6n2c5c31)C(=O)NC4 [staurosporine]
Inhibition of Src: formation of FRET partnership between SH2 domain of SHP2 and SHPS-1 peptide (Src kinase): failed to form a FRET partnership

[Na+].[Na+].[Na+].[O]=[V]([O-])([O-])[O-] [vanadate, Sodium orthovanadate]
IC50 [3]: 250 nM

B1: PKA Peptide 1, labelled with coumarin, non-phosphorylated (peptide)
peptide: EREIKALEREIRRLRRASQALEREIAQLERE
modifications: also: coumarin label, position not given here
notes: Coiled-coil forming peptide with a PKA phosphorylation site; also called coumarin labelled peptide 1
binding result [4]: binds

Reference: US6670144B1 (priority 1999, dated 2003)
